According to US7550457B2, “Pharmaceutically effective compounds” (CytRx Corporation, priority 2002, dated 2009):

What was measured:
[1] = tested on: thoracic aorta of SH rats; experiment: Vaso-relaxing effect on the thoracic aorta of SH rats (in vitro testing after one month treatment); format: in vivo, rat; details: aorta rings of SH rats treated for one month (dose per compound as in table), contracted with 10^-6 M methoxamine, unit assumed; for vessel relaxing effect, Ach dose 10^-5 M: acetylcholine 10^-5 M; for vessel relaxing effect, Ach dose 10^-6 M: acetylcholine 10^-6 M; for vessel relaxing effect, Ach dose 10^-4 M: acetylcholine 10^-4 M
Experimental: In the following, we give the results of the test of blood vessel relaxing effect, performed in vitro on rat vessels, and also the morphological results of the thoracic aorta.
(§1) Three-month-old, genetically hypertonic (SH) Wistar Okamoto rats were treated for one month with various test compounds. Thereafter the functional and morphological tests were performed.
The Vaso-relaxing Effect of the Compounds of the Invention on the Thoracic Aorta of SH Rats (In Vitro Testing)
The test was performed by the method known from the literature [Japan J. Pharmacol., 59, 339-347 (1992)]. The SH rats were anesthetized with Nembutal (40 mg/kg, i. p.), then the thoracic aorta was removed and placed in oxygenized (95% O2+5% CO2) Krebs-Henseleit solution. The composition of the solution (mM): NaCl 118, KCI 4, 7, CaCl2 2,52, MgSO4 1,64, NaHCO3 24,88, KH2PO4 1,18, glucose 5,5. The 3-mm-long aorta rings were suspended in a 20 ml organ bath of 37° C. The resting tension was 1 g, which was maintained throughout the equilibration. During the 1 hour equilibration, the medium was changed in every 20 minutes. The vessels were contracted with 10^−6 M methoxamine (approximately 80% of maximal contraction). After reaching the maximal contraction, we tested the vasodilation resulting as the effect of the acetylcholine (Ach) (10^−6−10^−4 M), which informed us about the condition of the endothelium of the vessel wall. The contraction force was measured by an isometric strain gauge (SG-01D, Experimentia Ltd), and was registered on an OH-850 polygraph (Radelkis). At this time again, 5,6-dihydro-5-(1-piperidinyl)-methyl-3-(3-pyridyl)-4H-1,2,4-oxadiazine as described in WO 98/06400 was used as a reference compound.

[2] = tested on: human umbilical vein endothelial cells (HUVEC); experiment: Wounding migration assay in endothelial cell culture; format: cell-based; details: wounded HUVEC monolayer, 24 hours after wounding, test agent 10^-6 M
Experimental: Wounding Migration Assay in Endothelial Cell Culture
The effect of the compounds of the invention on the wounded monolayers of human umbilical vein endothelial cells (HUVEC) were studied in a cell culture system (in vitro). After reaching confluence, the HUVEC cells were wounded according to the method of Yamamura et al. (J. Surgical Res. 63, 349-354, 1996). The number of migrated cells were registered using computerized image analysis 24 hours after wounding in the absence and presence of the active agents under testing in a concentration of 10^−6 M. The active ingredient described in publication no. WO 98/06400, namely 5,6-dihydro-5-(1-piperidinyl)-methyl-3-(3-pyridyl)-4H-1,2,4-oxadiazine was used as reference compound.

[3] = tested on: thoracic aorta of SH rats; experiment: Morphological testing of the thoracic aortas with electron microscopy; format: in vivo, rat; design: key: 1: no regeneration was observable; 2: weak; 3: average; 4: good; 5: strong regeneration; details: SH rats treated p. o. for one month (dose per compound as in table), scale of 1 to 5, electron microscopy of thoracic aorta endothelium
Experimental: as §1
Morphological Testing of the Thoracic Aortas with Electron Microscopy
The test was performed according to the procedure known from the literature (Br. J. of Pharmacol., 1995; 115, 415-420). 1 mm^2 pieces of the aorta wall was cut out of the thoracic aorta of the rats, and were then fixed with 2.5% glutaraldehyde at room temperature for 2 hours. This was followed by a post-fixation with 1% osmium tetroxide for 1 hour. Afterwards, the tissue pieces were dehydrated with ethanol, and embedded in Durcupan ACM. The samples were evaluated qualitatively based on the images recorded on a Hitachi 7100 electron microscope.
On the scale, 1 was used to refer to cases where no regeneration was observable, 2 refers to weak, 3 to average, 4 to good, and 5 to strong regeneration.

SMILES	vessel relaxing effect, Ach dose 10^-5 M [1]	vessel relaxing effect, Ach dose 10^-6 M [1]	number of migrated cells, cell/mm^2 24 hours [2]	vessel relaxing effect, Ach dose 10^-4 M [1]	Degree of regeneration [3]
O=C1CCCCN1CC1CON=C(c2cccnc2)N1 (single isomer, unassigned) [Compound no. 8, (R) or (S)-5,6-dihydro-5-[(2-oxo-1-piperidinyl)methyl]-3-(3-pyridyl)-4H-1,2,4-oxadiazine]	88%	–	–	–	–
[O-][n+]1cccc(C2=NOCC(CN3CCCCC3)N2)c1 (single isomer, unassigned; (+)) [Compound no. 9, (+)-5,6-dihydro-5-[(1-piperidinyl)methyl]-3-(1-oxido-3-pyridyl)-4H-1,2,4-oxadiazine]	–	87%	–	–	–
O.O.O=[N+]([O-])c1cccc(C(Cl)=NOCCC[N+]2([O-])CCCCC2)c1 [Compound no. 4, N-[3-(1-oxido-1-piperidinyl)propoxy]-3-nitro-benzimidoyl-chloride dihydrate]	84.9%	82.5%	45 cell/mm^2	88.1%	5
OC1CCN(CC2CON=C(c3cccnc3)N2)CC1 (centres unmarked) [Compound no. 11, 5,6-dihydro-5-[(4-hydroxy-1-piperidinyl)methyl]-3-(3-pyridyl)-4H-1,2,4-oxadiazine]	85.1%	79.7%	51 cell/mm^2	86%	4
Cl.ClC(=NOCC(Cl)CN1CCCCC1)c1ccccc1 (centres unmarked) [Compound no. 12, N-[2-chloro-3-(1-piperidinyl)propoxy]-3-benzimidoyl-chloride hydrochloride]	83.5%	82.3%	60 cell/mm^2	80.4%	3
O=C(NOCC(O)CN1CCCCC1)c1ccc[n+]([O-])c1 (centres unmarked) [Compound no. 13, N-[2-hydroxy-3-(1-piperidinyl)propoxy]-pyridin-1-oxide-3-carboxamide]	90.3%	88.4%	54 cell/mm^2	95.2%	4
c1cncc(C2=NOCC(CN3CCCCC3)N2)c1 (centres unmarked) [Reference, 5,6-dihydro-5-(1-piperidinyl)-methyl-3-(3-pyridyl)-4H-1,2,4-oxadiazine, reference compound]	80.2%	77.4%	30 cell/mm^2	81.7%	–
